Laboratory results published in patent publication US20140161891A1, “COMPOSITION OF PI3K INHIBITOR AND USE THEREOF” (priority 2012, published 2014).

Experiments:
PC14PE6/AS2 cells tumor = test: AS2 tumor model in nude mice, injection in the tumor; assay type: in vivo, Balb/c female nude mice; details: 1 mg/kg, injected in the tumor three times a week for two weeks
Experimental: Balb/c female nude mice were obtained from National Laboratory Animal Center, Taiwan. Mice of 6˜8 weeks old are used. The mice are randomly divided into four groups, and situated in the same environment with controlled tempeature, humidity and 12 h-light/dark cycle, and the controlled environmental conditions follows the environmental conditions for animal breeding set forth by National Cheng Kung University. The balb/c immunodeficient mice are innoculated with PC14PE6/AS2 cells (1×10^6 cells/1004 of PBS) by the subcutaneous inoculation method. If the tumor size is approximately equal to 50-60 cubic millimeters, the experiment starts taking place. […] The tumor size is measured by a caliper and a standard tumor volume measurement method (Volume=Long Axis×Short Axis^2×0.5). […]
After the procedure as shown in FIG. 5 takes place, the body weight of the mice is measured in every two other days to check whether there is a loss of weight. […] The survival rate is determined by the number of days when a natural death of each group of mice occurs or the tumor reaches a size of 4000 mm^3.

[1] = system: H157 (PI3KCA, PTEN null) lung cancer cell strain; test: MTT cell activity test; assay type: cell-based; details: H157, higher dosage, 48 hours
Excerpt: To measure the ionized LY, PLAG nanoparticles (SF-NPs), and SF-LY NPs, PLGA NPs are applied to four selected types of lung cancer cell strains including AS2 (PTEN null), H157 (PI3KCA, PTEN null), H460 (PI3KCA) and H1650 (PTEN null) in this preferred embodiment, and different concentrations are used to process the ionized LY or SF-LY NPs and a MTT testing method is used to measure the cell activity, and the experiment procedure is described in details as follows: The cells are inoculated in 96-hole culture boards (each hole has 5×10^3 cells) and cultured by 5% of CO2 at 37[…] till the next day. In four types of different cells, different doses of SF NPs, LY or SF-LY NPs are added and processed for 48 hours, and then a stock solution (with a content of 5 mg/ml in PBS) of a MTT agent at 37° C. is added to the 96-hole culture boards containing different processing drugs and wait for 4 fours before centrifuging the culture boards at 1200 rpm for 5 minutes, and after adding DMSO (capable of dissolving and precipitating products produced by the reaction of MTT and cells) for 5 minutes, the suspension is moved to a new ELISA board, and an ELISA reader (Varioskan, Thermo Electron) is used to measure the light absorption by 490 nm.

[2] = system: four types of lung cancer cell strains (AS2, H157, H460, H1650); test: MTT cell activity test, four cell strains together; assay type: cell-based; details: 48 hours
Excerpt: To measure the ionized LY, PLAG nanoparticles (SF-NPs), and SF-LY NPs, PLGA NPs are applied to four selected types of lung cancer cell strains including AS2 (PTEN null), H157 (PI3KCA, PTEN null), H460 (PI3KCA) and H1650 (PTEN null) in this preferred embodiment, and different concentrations are used to process the ionized LY or SF-LY NPs and a MTT testing method is used to measure the cell activity, and the experiment procedure is described in details as follows:
The cells are inoculated in 96-hole culture boards (each hole has 5×10^3 cells) and cultured by 5% of CO2 at 37[…] till the next day. In four types of different cells, different doses of SF NPs, LY or SF-LY NPs are added and processed for 48 hours, and then a stock solution (with a content of 5 mg/ml in PBS) of a MTT agent at 37° C. is added to the 96-hole culture boards containing different processing drugs and wait for 4 fours before centrifuging the culture boards at 1200 rpm for 5 minutes, and after adding DMSO (capable of dissolving and precipitating products produced by the reaction of MTT and cells) for 5 minutes, the suspension is moved to a new ELISA board, and an ELISA reader (Varioskan, Thermo Electron) is used to measure the light absorption by 490 nm. […]

SMILES: O=c1cc(N2CCOCC2)oc2c(-c3ccccc3)cccc12 [LY294002, 2-(4-Morpholinyl)-8-phenyl-4H-1-benzopyran-4-one]
- growth of tumors (PC14PE6/AS2 cells tumor): insufficient to reduce the growth of tumors
- tumor size increase relative to start (PC14PE6/AS2 cells tumor; after 12˜14 days): approximately 40 times
- toxicity to H157 cells [1]: slight toxicity
- toxicity of the cells [2]: slight toxicity
